Experimental data reported in patent publication US12226405B2, “Compounds and compositions for inhibiting the activity of HIF2-alpha and their methods of use” (Novartis AG, priority 2020, dated 2025).
Where two headings read alike, the source gives them in different places.

Assays:
[1] = 25° C.; for hygroscopicity assignment (DVS): 0 to 95% RH
Description: Dynamic vapor sorption was performed using a SMS Advantage system. Approximately 10 mg of sample was subjected to varying humidities between 0% RH and 95% RH at 25° C. Evaluation was performed using the system software.

[2] = system: HIF2α-regulated expression of the endogenous target gene hEGLN3 in 786-O cells; assay: Cellular iScript assay for HIF2α (quantitative RT-PCR of hEGLN3); format: cell-based, human; settings: Homo sapiens, 786-0, 48 hours incubation
Summary of the method: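 786-O cells were exposed to eleven 2-fold compound dilutions for 48 h at 37° C. Lysates underwent one-step TaqMan qRT-PCR for hEGLN3 with beta-actin as reference; 2^(−ΔΔCt) versus DMSO, as % of control, was fit with a four-parameter model to give IC50.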

[3] = system: HIF2α-dependent transcription in 786-O-HRE-Luc cells; assay: In vitro cellular hypoxia response element (HRE) reporter gene assay (RGA) for HIF2α; format: cell-based, human; settings: Homo sapiens, 24 hours incubation
Summary of the method: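 Renal carcinoma cells carrying a 4×HRE-driven PEST-destabilised firefly luciferase were treated a day after seeding with eleven 2-fold compound dilutions (0.1% DMSO) for 24 h at 37° C. BrightGlo luminescence, background-subtracted and expressed as % of DMSO control, was fitted four-parametrically for IC50.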

[4] = target: T1, HIF2α PAS-B domain (236-350, biotinylated on the N-terminus) (Homo sapiens (Human), UniProt Q99814); assay: biochemical
Description: (§1) The assay buffer contained 50 mM Tris-HCl pH7 (Sigma), 20 mM NaCl (Fluka), 0.02% BSA (Sigma), 0.005% Triton X-100 (Pierce) and 1 mM DTT (Fluka). After a 30 min incubation period, 5 μL Streptavidin PVT SPA Beads (Perkin Elmer) at 1.2 mg/mL, diluted in the buffer, were added.

[5] = target: T1, HIF2α PAS-B domain (236-350, biotinylated on the N-terminus)
Description: as §1

[6] = target: T1, HIF2α PAS-B domain (236-350, biotinylated on the N-terminus); assay: In vitro SPA with the PAS-B domain of HIF2α (competition binding with radio-ligand); settings: read-out: affinity of the non-labeled ligand, IC50
Description: as §1

T1 sequence (Q99814 236-350): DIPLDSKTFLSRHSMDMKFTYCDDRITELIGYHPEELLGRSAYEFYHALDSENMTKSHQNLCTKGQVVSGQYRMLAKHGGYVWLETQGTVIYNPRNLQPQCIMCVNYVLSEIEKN

Compound | hygroscopicity assignment (DVS) [1] | mass difference between 0 and 95% RH (DVS) [1] | IC50 [2] | IC50 [3] | IC50 [4] | IC50 [5] | IC50 [6]
FC(F)OC1=CC(C(F)(F)F)=CN2C[C@@]3(CCC(F)(F)c4c3ccnc4Cl)N=C12.O=C(O)/C=C/C(=O)O | non-hygroscopic | less than 0.1 weight % |  |  |  |  | 
FC(F)OC1=CC(C(F)(F)F)=CN2C[C@@]3(CCC(F)(F)c4c3ccnc4Cl)N=C12 | non-hygroscopic | less than 0.05 weight % |  |  |  |  | 
FC1=CC(C(F)(F)F)=CN2CC3(CCCc4c3ccc(F)c4F)N=C12 (racemic) [Example 78, rac-5′,6′,8-trifluoro-6-(trifluoromethyl)-3′,4′-dihydro-2′H,3H-spiro[imidazo[1,2-a]pyridine-2,1′-naphthalene]] |  |  | 161 nM | 4230 nM | 8 nM |  | 
FC(F)OC1=CC(C(F)(F)F)=CN2CC3(CCCc4c(Br)cccc43)N=C12 (racemic) [Example 81, rac-5′-bromo-8-(difluoromethoxy)-6-(trifluoromethyl)-3′,4′-dihydro-2′H,3H-spiro[imidazo[1,2-a]pyridine-2,1′-naphthalene]] |  |  | 57 nM | 143 nM | ≤ 10 nM |  | 
FC(F)OC1=CC(C(F)(F)F)=CN2CC3(CCCc4cnccc43)N=C12 (racemic) [Example 93, rac-8-(difluoromethoxy)-6-(trifluoromethyl)-7′,8′-dihydro-3H,6′H-spiro[imidazo[1,2-a]pyridine-2,5′-isoquinoline]] |  |  | 178 nM |  | 12 nM |  | 
Fc1cccc2c1OC[C@H](F)[C@@]21CN2C=C(C(F)(F)F)C=C(OC(F)F)C2=N1 (racemic) [Example 101, rac-8′-(difluoromethoxy)-3,8-difluoro-6′-(trifluoromethyl)-3′H-spiro[chromane-4,2′-imidazo[1,2-a]pyridine]] |  |  | 149 nM |  | 15 nM |  | 
Fc1c(C(F)(F)F)ccc2c1COCC21CN2C=C(C(F)(F)F)C=C(OC(F)F)C2=N1 (racemic) [Example 108, rac-8-(difluoromethoxy)-8′-fluoro-6,7′-bis(trifluoromethyl)-3H-spiro[imidazo[1,2-a]pyridine-2,4′-isochroman]] |  |  | 156 nM | 692 nM | 29 nM |  | 
FC(F)OC1=CC(C(F)(F)F)=CN2CC3(CCCOc4c(Cl)cccc43)N=C12 (racemic) [Example 118, rac-9-chloro-8′-(difluoromethoxy)-6′-(trifluoromethyl)-3,4-dihydro-2H,3′H-spiro[benzo[b]oxepine-5,2′-imidazo[1,2-a]pyridine]] |  |  | 161 nM | 1030 nM | 16 nM |  | 
FC(F)OC1=CC(C(F)(F)F)=CN2C[C@]3(CCOc4cc(C(F)(F)F)ccc43)N=C12 [(R)-8′-(difluoromethoxy)-6′,7-bis(trifluoromethyl)-3′H-spiro[chroman-4,2′-imidazo[1,2-a]pyridine]] |  |  |  |  | > 10000 nM |  | 
Fc1c(Br)ccc2c1CC[C@@]21CN2C=C(C(F)(F)F)C=C(OC(F)F)C2=N1 [Example 1, (S)-5′-bromo-8-(difluoromethoxy)-4′-fluoro-6-(trifluoromethyl)-2′,3′-dihydro-3H-spiro[imidazo[1,2-a]pyridine-2,1′-indene]] |  |  | 65 nM | 232 nM | ≤ 3 nM |  | 
O[C@H]1c2c(ccc(Br)c2F)[C@]2(CN3C=C(C(F)(F)F)C=C(OC(F)F)C3=N2)CC1(F)F [Example 18, (1′S,4'S)-6′-bromo-8-(difluoromethoxy)-3′,3′,5′-trifluoro-6-(trifluoromethyl)-3′,4′-dihydro-2′H,3H-spiro[imidazo[1,2-a]pyridine-2,1′-naphthalen]-4′-ol] |  |  | 37 nM | 92 nM | 6 nM |  | 
O[C@@H]1c2c(ccc(Br)c2F)[C@]2(CN3C=C(C(F)(F)F)C=C(OC(F)F)C3=N2)CC1(F)F [Example 19, (1′S,4′R)-6′-bromo-8-(difluoromethoxy)-3′,3′,5′-trifluoro-6-(trifluoromethyl)-3′,4′-dihydro-2′H,3H-spiro[imidazo[1,2-a]pyridine-2,1′-naphthalen]-4′-ol] |  |  | 144 nM | 446 nM | 36 nM |  | 
O=C1c2c(F)cccc2[C@@]2(C[C@H]1F)CN1C=C(C(F)(F)F)C=C(OC(F)F)C1=N2 [Example 20, (1′S,3′R)-8-(difluoromethoxy)-3′,5′-difluoro-6-(trifluoromethyl)-2′H,3H-spiro[imidazo[1,2-a]pyridine-2,1′-naphthalen]-4′(3′H)-one] |  |  | 155 nM | 892 nM | 15 nM |  | 
N#CC1=CN2C[C@@]3(CSCc4c(F)cccc43)N=C2C(OC(F)F)=C1 [Example 68, (S)-8-(difluoromethoxy)-8′-fluoro-3H-spiro[imidazo[1,2-a]pyridine-2,4′-isothiochroman]-6-carbonitrile] |  |  | 111 nM | 670 nM | 11 nM |  | 
FCOC1=CC(C(F)(F)F)=CN2C[C@@]3(CCSc4c3cnc(C(F)(F)F)c4F)N=C12 [Example 114, (S)-8′-fluoro-8-(fluoromethoxy)-6,7′-bis(trifluoromethyl)-2′,3′-dihydro-3H-spiro[imidazo[1,2-a]pyridine-2,4′-thiopyrano[3,2-c]pyridine]] |  |  | 84 nM | 356 nM |  | 42 nM | 
Fc1ccc2c(c1F)OCCC[C@@]21CN2C=C(C(F)(F)F)C=C(OC(F)F)C2=N1 [Example 117, (S)-8′-(difluoromethoxy)-8,9-difluoro-6′-(trifluoromethyl)-3,4-dihydro-2H,3′H-spiro[benzo[b]oxepine-5,2′-imidazo[1,2-a]pyridine]] |  |  | 24 nM | 281 nM |  | ≤ 4 nM | 
Fc1c(Cl)ccc2c1COCC[C@@]21CN2C=C(C(F)(F)F)C=C(OC(F)F)C2=N1 [Example 119, (S)-8-chloro-8′-(difluoromethoxy)-9-fluoro-6′-(trifluoromethyl)-3,4-dihydro-1H,3′H-spiro[benzo[c]oxepine-5,2′-imidazo[1,2-a]pyridine]] |  |  | 97 nM | 292 nM |  | 19 nM | 
O=[N+]([O-])c1c(Nc2cc(F)cc(Cl)c2)ccc2nonc12 [N-(3-chloro-5-fluorophenyl-4-t)-4-nitrobenzo[c][1,2,5]oxadiazol-7-t-5-amine, reference compound] |  |  |  |  |  |  | 82 ± 18 nM
